This passage reports IC50 results from patent US12157746B2, “Tetrahydro-1H-pyrazino[2,1-a]isoindolylquinoline compounds for the treatment of autoimmune disease” (F. HOFFMANN-LA ROCHE AG, priority 2018, dated 2024).

Some results are limits rather than exact numbers.

This assay has as its target T1, human TLR9 (Homo sapiens, UniProt Q9NR96).
T1 sequence (Q9NR96 26-1032): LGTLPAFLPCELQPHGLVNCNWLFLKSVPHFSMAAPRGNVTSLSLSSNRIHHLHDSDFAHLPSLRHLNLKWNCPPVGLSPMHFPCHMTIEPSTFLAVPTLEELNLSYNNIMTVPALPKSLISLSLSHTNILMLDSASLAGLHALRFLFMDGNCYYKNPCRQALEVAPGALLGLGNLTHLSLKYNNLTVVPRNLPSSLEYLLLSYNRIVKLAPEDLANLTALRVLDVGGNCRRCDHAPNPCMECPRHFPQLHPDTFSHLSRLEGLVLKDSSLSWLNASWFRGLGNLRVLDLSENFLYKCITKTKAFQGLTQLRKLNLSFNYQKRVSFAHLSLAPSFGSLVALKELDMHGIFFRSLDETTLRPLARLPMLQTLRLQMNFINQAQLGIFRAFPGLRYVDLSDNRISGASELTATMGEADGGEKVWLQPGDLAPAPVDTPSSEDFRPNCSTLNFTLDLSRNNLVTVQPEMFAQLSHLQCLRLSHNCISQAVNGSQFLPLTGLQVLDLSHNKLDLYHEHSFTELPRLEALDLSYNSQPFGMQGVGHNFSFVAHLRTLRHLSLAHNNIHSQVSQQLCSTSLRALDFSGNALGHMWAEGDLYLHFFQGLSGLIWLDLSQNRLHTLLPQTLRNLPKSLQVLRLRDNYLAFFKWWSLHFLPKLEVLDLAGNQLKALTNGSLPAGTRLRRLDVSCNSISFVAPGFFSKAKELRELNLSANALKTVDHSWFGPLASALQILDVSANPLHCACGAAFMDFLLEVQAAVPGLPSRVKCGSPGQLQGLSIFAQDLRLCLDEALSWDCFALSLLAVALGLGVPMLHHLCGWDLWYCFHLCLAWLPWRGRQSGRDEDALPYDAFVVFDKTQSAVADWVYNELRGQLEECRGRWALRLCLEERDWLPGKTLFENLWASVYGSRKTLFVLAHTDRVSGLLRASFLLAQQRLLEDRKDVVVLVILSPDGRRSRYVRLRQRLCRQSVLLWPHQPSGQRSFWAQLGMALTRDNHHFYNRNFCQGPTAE
Description: HEK293-Blue-hTLR-9 cells assay. Format: cell-based. The following applies: HEK293-Blue-hTLR9 cells, ODN2006 stimulation, 20 hrs, SEAP reporter; read-out: HEK/hTLR9 IC50. The source says: HEK293-Blue-hTLR-9 Cells Assay:
A stable HEK293-Blue-hTLR-9 cell line was purchased from InvivoGen (Cat. #: hkb-htlr9, San Diego. California USA). These cells were originally designed for studying the stimulation of human TLR9 by monitoring the activation of NF-κB. A SEAP (secreted embryonic alkaline phosphatase) reporter gene was placed under the control of the IFN-β minimal promoter fused to five NF-κB and AP-1-binding sites. The SEAP was induced by activating NF-κB and AP-1 via stimulating HEK-Blue hTLR9 cells with TLR9 ligands. Therefore the reporter expression was declined by TLR9 antagonist under the stimulation of a ligand, such as ODN2006 (Cat. #: tlrl-2006-1, Invivogen, San Diego, California USA), for incubation of 20 hrs. The cell culture supernatant SEAP reporter activity was determined using QUANTI-Blue™ kit (Cat. #: rep-qb1, Invivogen, San Diego, California, USA) at a wavelength of 640 nm, a detection medium that turns purple or blue in the presence of alkaline phosphatase.
HEK293-Blue-hTLR9 cells were incubated at a density of 250.000-450,000 cells/mL in a volume of 170 μL in a 96-well plate in Dulbecco's Modified Eagle's medium (DMEM) containing 4.5 g/L glucose, 50 U/mL penicillin, […], […], 2 mM L-glutamine, 10% (v/v) heat-inactivated fetal bovine serum with addition of 20 μL test compound 1n a serial dilution in the presence of final DMSO at 1% and 10 μL of 20 uM ODN2006 in above DMEM, perform incubation under 37° C. in a CO2 incubator for 20 hrs. Then 20 μL of the supernatant from each well was incubated with 180 μL Quanti-blue substrate solution at 37° C. for 2 h and the absorbance was read at 620˜655 nm using a spectrophotometer. The signaling pathway that TLR9 activation leads to downstream NF-κB activation has been widely accepted, and therefore similar reporter assay was modified for evaluating TLR9 antagonist.
Take `COC12CNCC1CN(c1ccc3c(c1)CN1[C@H](C)CN(c4ccc(C#N)c5ncccc45)C[C@H]31)C2` (stereo partly drawn) [Example 41, 5-[(4R,10bS)-8-(3a-methoxy-1,2,3,4,6,6a-hexahydropyrrolo[3,4-c]pyrrol-5-yl)-4-methyl-3,4,6,10b-tetrahydro-1H-pyrazino[2,1-a]isoindol-2-yl]quinoline-8-carbonitrile]: the IC50 is less than 31.8 nM. Next, `C[C@@H]1CN(c2ccc(C#N)c3ncccc23)C[C@@H]2c3ccc(C4CCNCC4)cc3CN12` [Example 9, 5-[(4R,10bS)-4-methyl-8-(4-piperidyl)-3,4,6,10b-tetrahydro-1H-pyrazino[2,1-a]isoindol-2-yl]quinoline-8-carbonitrile]: 130 nM; `CN[C@H]1CN(c2ccc3c(c2)CN2[C@H](C)CN(c4ccc(C#N)c5ncccc45)C[C@H]32)C[C@@H]1OC` [Example 23, 5-[(4R,10bS)-8-[(3S,4S)-3-methoxy-4-(methylamino)pyrrolidin-1-yl]-4-methyl-3,4,6,10b-tetrahydro-1H-pyrazino[2,1-a]isoindol-2-yl]quinoline-8-carbonitrile]: 92.4 nM.

Turning to `CO[C@@H]1CN(c2ccc3c(c2)CN2[C@H](C)CN(c4ccc(C#N)n5nccc45)C[C@H]32)CC[C@@H]1N` [Example 105, 4-[(4R,10bS)-8-[(3R,4S)-4-amino-3-methoxy-1-piperidyl]-4-methyl-3,4,6,10b-tetrahydro-1H-pyrazino[2,1-a]isoindol-2-yl]pyrazolo[1,5-a]pyridine-7-carbonitrile], the IC50 turned out to be 163 nM. The same measure for `C[C@@H]1CN(c2ccc(C#N)c3ncccc23)C[C@@H]2c3ccc(N4C[C@@H](F)[C@@H](N)C4)cc3CN12` [Example 46, 5-[(4R,10bS)-8-[(3S,4R)-3-amino-4-fluoro-pyrrolidin-1-yl]-4-methyl-3,4,6,10b-tetrahydro-1H-pyrazino[2,1-a]isoindol-2-yl]quinoline-8-carbonitrile]: 144 nM. Next, `CO[C@@H]1CN(c2ccc3c(c2)CN2C3CN(c3ccc(C#N)c4ncccc34)C[C@H]2C)C[C@@H]1N` (relative stereo) [Example 17, 5-[(4R,10bS)-8-[cis-3-amino-4-methoxy-pyrrolidin-1-yl]-4-methyl-3,4,6,10b-tetrahydro-1H-pyrazino[2,1-a]isoindol-2-yl]quinoline-8-carbonitrile]: 81 nM. Next, `C[C@@H]1CN(c2ccc(C#N)c3ncccc23)C[C@@H]2c3ccc(N4CCOC5CNCC54)cc3CN12` (stereo partly drawn) [Example 52, 5-[(4R,10bS)-8-(3,4a,5,6,7,7a-hexahydro-2H-pyrrolo[3,4-b][1,4]oxazin-4-yl)-4-methyl-3,4,6,10b-tetrahydro-1H-pyrazino[2,1-a]isoindol-2-yl]quinoline-8-carbonitrile]: 195 nM; `CO[C@H]1CN(c2ccc3c(c2)CN2[C@H](C)CN(c4ccc(C#N)c5ncccc45)C[C@H]32)C[C@@H]1N` (relative stereo) [Example 16, 5-[(4R,10bS)-8-[trans-3-amino-4-methoxy-pyrrolidin-1-yl]-4-methyl-3,4,6,10b-tetrahydro-1H-pyrazino[2,1-a]isoindol-2-yl]quinoline-8-carbonitrile]: 95.2 nM. In the case of `C[C@@H]1CN(c2ccc(C#N)n3nccc23)C[C@@H]2c3ccc(N4C[C@@H](N)[C@](C)(O)C4)cc3CN12` [Example 108, 4-[(4R,10bS)-8-[(3R,4R)-4-amino-3-hydroxy-3-methyl-pyrrolidin-1-yl]-4-methyl-3,4,6,10b-tetrahydro-1H-pyrazino[2,1-a]isoindol-2-yl]pyrazolo[1,5-a]pyridine-7-carbonitrile], the IC50 amounted to 126 nM. For the molecule `CO[C@@H]1CN(c2ccc3c(c2)CN2[C@H](C)CN(c4ccc(C#N)n5nccc45)C[C@H]32)C[C@H]1N` [Example 94, 4-[(4R,10bS)-8-[(3R,4R)-3-amino-4-methoxy-pyrrolidin-1-yl]-4-methyl-3,4,6,10b-tetrahydro-1H-pyrazino[2,1-a]isoindol-2-yl]pyrazolo[1,5-a]pyridine-7-carbonitrile], the IC50 was determined as 149 nM. Regarding `C[C@@H]1CN(c2ccc(C#N)c3ncccc23)C[C@@H]2c3ccc(NC4CNC4)cc3CN12` [Example 28, 5-[(4R,10S)-8-(azetidin-3-ylamino)-4-methyl-3,4,6,10b-tetrahydro-1H-pyrazino[2,1-a]isoindol-2-yl]quinoline-8-carbonitrile], the IC50 came out at 83.4 nM.

For the molecule `C[C@@H]1CN(c2ccc(C#N)c3ncccc23)C[C@@H]2c3ccc(N4C[C@@H](N)[C@@H](F)C4)cc3CN12` [Example 47, 5-[(4R,10bS)-8-[(3R,4S)-3-amino-4-fluoro-pyrrolidin-1-yl]-4-methyl-3,4,6,10b-tetrahydro-1H-pyrazino[2,1-a]isoindol-2-yl]quinoline-8-carbonitrile], the IC50 was found to be 146 nM.

As to `C[C@@H]1CN(c2ccc(C#N)c3ncccc23)CC2c3ccc(N4C[C@H](N)[C@@H](O)C4)cc3CN21` (relative stereo) [Example 21, 5-[(4R,10bS)-8-[trans-3-amino-4-hydroxy-pyrrolidin-1-yl]-4-methyl-3,4,6,10b-tetrahydro-1H-pyrazino[2,1-a]isoindol-2-yl]quinoline-8-carbonitrile], the IC50 is 56.1 nM. As to `C[C@@H]1CN(c2ccc(C#N)c3ncccc23)C[C@@H]2c3ccc(N4CC5CNCC(C4)O5)cc3CN12` [Example 14, 5-[(4R,10bS)-4-methyl-8-(9-oxa-3,7-diazabicyclo[3.3.1]nonan-3-yl)-3,4,6,10b-tetrahydro-1H-pyrazino[2,1-a]isoindol-2-yl]quinoline-8-carbonitrile], the IC50 was found to be 81.1 nM. Next, `C[C@@H]1CN(c2ccc(C#N)c3ncccc23)C[C@@H]2c3ccc(N4CCOC[C@@H](N)C4)cc3CN12` [Example 54B, 5-[(4R,10bS)-8-[(6S)-6-amino-1,4-oxazepan-4-yl]-4-methyl-3,4,6,10b-tetrahydro-1H-pyrazino[2,1-a]isoindol-2-yl]quinoline-8-carbonitrile]: 87.3 nM.

In the case of `C[C@@H]1CN(c2ccc(C#N)n3nccc23)C[C@@H]2c3ccc(N4CC5CNCC(C4)O5)cc3CN12` [Example 107, 4-[(4R,10bS)-4-methyl-8-(9-oxa-3,7-diazabicyclo[3.3.1]nonan-3-yl)-3,4,6,10b-tetrahydro-1H-pyrazino[2,1-a]isoindol-2-yl]pyrazolo[1,5-a]pyridine-7-carbonitrile], the IC50 was found to be 67.9 nM. The same measure for `C[C@@H]1CN(c2ccc(C#N)c3ncccc23)C[C@@H]2c3ccc(N4CC(N)C4)cc3CN12` [Example 22, 5-[(4R,10bS)-8-(3-aminoazetidin-1-yl)-4-methyl-3,4,6,10b-tetrahydro-1H-pyrazino[2,1-a]isoindol-2-yl]quinoline-8-carbonitrile]: 104 nM; for `C[C@@H]1CN(c2ccc(C#N)c3ncccc23)C[C@@H]2c3ccc(N[C@H]4CNC[C@@H]4F)cc3CN12` [Example 31, 5-[(4R,10bS)-8-[[(3S,4S)-4-fluoropyrrolidin-3-yl]amino]-4-methyl-3,4,6,10b-tetrahydro-1H-pyrazino[2,1-a]isoindol-2-yl]quinoline-8-carbonitrile]: 93.7 nM.
